Results as given in patent US12582680B2, “Pharmaceutical composition for prevention, amelioration, or treatment of skin disease” (priority 2019, dated 2026).

Experiments:
S. aureus = experiment: Sensitivity to antibiotics, culture of skin bacteria in media containing antibiotics, number of colonies; type: cell-based; details: FIGS. 9C and 9D
Text: (§1) FIG. 9A is a schematic diagram showing an experimental flow. FIG. 9B is a graph that indicates changes over time of clinical scores in the skins of SPF-Tmem79^−/− mice inoculated with ampicillin (Amp) or fusidic acid (FA) being an antibiotic (ABx).
(§2) Further, the sensitivity of S. aureus and S. cohnii to both antibiotics was verified by using the antibiotics. The proliferation of S. aureus was suppressed by any one of the ampicillin and the fusidic acid (FIGS. 9C and 9D).

S. cohnii = experiment: as above; type: cell-based; details: FIGS. 9C and 9E
Text: as §1, §2

SPF-Tmem79-KO mouse = experiment: Antibiotic in drinking water, dermatitis clinical scores of SPF-Tmem79-KO mouse; type: in vivo; details: 200 mg/mL in drinking water; FIG. 9B
Description: For the SPF-Tmem79-KO mouse and the control (SPF-WT mice), the clinical scores were evaluated on a 4-point scale of 0: normal, 1: mild, 2: moderate, and 3: severe for each of the four items of erythema, edema, erosion, and dryness. The degree of inflammation in the skin was evaluated by using the total value of the clinical scores of the four items. In the drawing, the SPF-Tmem79-KO mouse is described as “SPF Tmem79^−/−”, and the SPF-WT mouse is described as “SPF WT”. It can be understood that the SPF-Tmem79-KO mouse developed bimodal dermatitis.
Ampicillin (manufactured by NACALAI TESQUE, INC.) or fusidic acid (manufactured by Sigma-Aldrich Co. LLC.) was suspended in drinking water so as to be 200 mg/mL and the resultant drinking water was administered to the SPF-Tmem79-KO mouse, and the clinical scores were obtained with time.

[1] = system: GF-WT mouse applied with imiquimod; experiment: Imiquimod-initiated inflammation in GF-WT mouse, squalene and mifepristone; type: in vivo
Description: Imiquimod (Beselna cream, manufactured by MOCHIDA PHARMACEUTICAL CO., LTD.) was applied onto the ears of a GF-WT mouse at a dose of 50 mg per mouse once a day for 5 consecutive days.
Further, in another group of mice, mifepristone (M8046-1G, manufactured by Sigma-Aldrich Co. LLC) was administered to the mice freely at 210 μg/mL in drinking water during the experimental period.

[2] = mifepristone 210 μg/mL in drinking water

CC1(C)S[C@@H]2[C@H](NC(=O)[C@H](N)c3ccccc3)C(=O)N2[C@H]1C(=O)O [ampicillin] was tested, and the “proliferation of S. aureus” value (S. aureus) was “suppressed”, the “proliferation of S. cohnii” value (S. cohnii) was “significantly suppressed” and the “degree of dermatitis (clinical scores)” value (SPF-Tmem79-KO mouse) was “alleviation of the dermatitis was not observed”.
CC(=O)O[C@H]1C[C@@]2(C)[C@@H](C[C@@H](O)[C@H]3[C@@]4(C)CC[C@@H](O)[C@@H](C)[C@@H]4CC[C@@]32C)/C1=C(\CCC=C(C)C)C(=O)O [fusidic acid] was tested, and the “proliferation of S. aureus” value (S. aureus) was “suppressed”, the “proliferation of S. cohnii” value (S. cohnii) was “not suppressed” and the “degree of dermatitis (clinical scores)” value (SPF-Tmem79-KO mouse) was “alleviated”.
For CC#C[C@]1(O)CC[C@H]2[C@@H]3CCC4=CC(=O)CCC4=C3[C@@H](c3ccc(N(C)C)cc3)C[C@@]21C [mifepristone], the “suppression of imiquimod-initiated inflammation by S. cohnii, effect of mifepristone” value [1, 2] was “inhibited” and the “suppression of imiquimod-initiated inflammation by squalene, effect of mifepristone” value [1, 2] was “inhibition of suppressive effect”.
In the case of CC(C)=CCC/C(C)=C/CC/C(C)=C/CC/C=C(\C)CC/C=C(\C)CCC=C(C)C [squalene], the “imiquimod-initiated inflammation (ear swelling and lymph node swelling)” value ([1]; S. cohnii 2.0×10^7 CFU first 3 days, squalene 200 μl per mouse for 5 days, FIGS. 22B and 22C) is reported as “almost the same as that of S. cohnii”.
